According to patent US7060699B2, “Aryl and heteroaryl diazabicycloalkanes, their preparation and use” (priority 2000, dated 2006):
Where two headings read alike, the source gives them in different places.

Legend:
serotonin transporter = target: T1, serotonin transporter (Rattus norvegicus, UniProt P31652); assay: In vitro inhibition of 3H-5-hydroxytryptamine (3H-5-HT, serotonin) uptake in cortical synaptosomes; type: biochemical
T1 construct: Cerebral cortices from male Wistar rats (150–200 g) are homogenized; from tissue; host or cells: rat cerebral cortex synaptosomes (P2 pellet)
T1 sequence (P31652 whole entry): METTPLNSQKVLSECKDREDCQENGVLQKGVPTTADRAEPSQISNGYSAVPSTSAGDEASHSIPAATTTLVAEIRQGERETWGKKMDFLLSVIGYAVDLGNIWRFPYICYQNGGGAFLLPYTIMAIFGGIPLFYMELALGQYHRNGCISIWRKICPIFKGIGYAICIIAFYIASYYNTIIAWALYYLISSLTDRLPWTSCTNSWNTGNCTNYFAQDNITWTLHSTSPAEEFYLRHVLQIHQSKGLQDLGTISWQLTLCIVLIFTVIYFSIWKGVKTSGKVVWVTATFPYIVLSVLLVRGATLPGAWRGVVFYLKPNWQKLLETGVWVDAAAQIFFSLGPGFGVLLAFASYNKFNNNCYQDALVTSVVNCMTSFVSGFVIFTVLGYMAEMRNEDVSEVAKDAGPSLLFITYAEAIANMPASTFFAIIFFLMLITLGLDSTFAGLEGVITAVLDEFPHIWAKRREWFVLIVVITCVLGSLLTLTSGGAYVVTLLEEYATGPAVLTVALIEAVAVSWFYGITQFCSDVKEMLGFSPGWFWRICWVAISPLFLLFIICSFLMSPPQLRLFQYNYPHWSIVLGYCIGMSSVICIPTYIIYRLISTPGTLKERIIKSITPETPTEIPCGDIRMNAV
Description: In Vitro Inhibition of ^3H-5-hydroxytryptamine (^3H-5-HT, Serotonin) Uptake in Cortical Synaptosomes
Serotonin transporters/uptake sites on nerve terminals presumably function to terminate neuronal signaling by removing serotonin from the synaptic cleft. The activity of the serotonin transporter integral protein can be measured in vitro by synaptosomal uptake of ^3H-5-hydroxytryptamine.
Preparations are performed at 0–4° C. unless otherwise indicated. Cerebral cortices from male Wistar rats (150–200 g) are homogenized for 5–10 sec in 100 volumes of ice-cold 0.32M sucrose containing 1 mM pargyline using a motor driven teflon pestle in a glass homogenizing vessel. Monoamine oxidase activity will be inhibited in the presence of pargyline. The homogenate is centrifuged at 1000×g for 10 min. The resulting supernatant is then centrifuged at 27,000×g for 50 min and the supernatant is discarded.
Aliquots of 4.0 ml tissue suspension are added to 100 µl of test solution and 100 μl of ^3H-5-HT (1 nM, final concentration), mixed and incubated for 30 min at 37° C. Non-specific uptake is determined using citalopram (1 μM, final concentration). After incubation the samples are poured directly onto Whatman GF/C glass fibre filters under suction. The filters are then washed three times with 5 ml of ice-cold 0.9% (w/v) NaCl solution. The amount of radioactivity on the filters is determined by conventional liquid scintillation counting. Specific uptake is calculated as the difference between total uptake and non-specific uptake.
where C0 is specific binding in control assays and Cx is the specific binding in the test assay (the calculations assume normal mass-action kinetics).

[1] = target: nAChR comprised of α4 and β2 subunits (Rattus norvegicus, UniProt P09483+P12390); assay: In vitro inhibition of 3H-cytisine binding
Sequence of nAChR comprised of α4 and β2 subunits (P09483 31-630): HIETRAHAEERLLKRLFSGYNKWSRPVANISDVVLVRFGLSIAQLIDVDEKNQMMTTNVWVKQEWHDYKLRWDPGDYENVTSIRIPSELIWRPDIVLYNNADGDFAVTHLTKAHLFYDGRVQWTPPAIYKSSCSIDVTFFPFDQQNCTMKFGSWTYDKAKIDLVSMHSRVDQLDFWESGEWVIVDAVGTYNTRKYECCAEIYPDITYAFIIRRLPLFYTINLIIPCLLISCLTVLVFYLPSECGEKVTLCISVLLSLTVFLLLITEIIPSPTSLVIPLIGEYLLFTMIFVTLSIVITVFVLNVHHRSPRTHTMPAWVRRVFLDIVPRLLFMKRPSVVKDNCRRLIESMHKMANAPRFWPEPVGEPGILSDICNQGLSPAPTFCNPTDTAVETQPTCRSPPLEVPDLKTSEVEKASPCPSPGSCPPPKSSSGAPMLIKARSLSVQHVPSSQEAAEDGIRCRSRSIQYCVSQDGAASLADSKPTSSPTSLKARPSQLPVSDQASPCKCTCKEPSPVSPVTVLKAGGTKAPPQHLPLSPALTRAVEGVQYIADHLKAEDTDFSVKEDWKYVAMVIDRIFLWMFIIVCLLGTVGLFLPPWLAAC
Sequence of nAChR comprised of α4 and β2 subunits (P12390 25-500): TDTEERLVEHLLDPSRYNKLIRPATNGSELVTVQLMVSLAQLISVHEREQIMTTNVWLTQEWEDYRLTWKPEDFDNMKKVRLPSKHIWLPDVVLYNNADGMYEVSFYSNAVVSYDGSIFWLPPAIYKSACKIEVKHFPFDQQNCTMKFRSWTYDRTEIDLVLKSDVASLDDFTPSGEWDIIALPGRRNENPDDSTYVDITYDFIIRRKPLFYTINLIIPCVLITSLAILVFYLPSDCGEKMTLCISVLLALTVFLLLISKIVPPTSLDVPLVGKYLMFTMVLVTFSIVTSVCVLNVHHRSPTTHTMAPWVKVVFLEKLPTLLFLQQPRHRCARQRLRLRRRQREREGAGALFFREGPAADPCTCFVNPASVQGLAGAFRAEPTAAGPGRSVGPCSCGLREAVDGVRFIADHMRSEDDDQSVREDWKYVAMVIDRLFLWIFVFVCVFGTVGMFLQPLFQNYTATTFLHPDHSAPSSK

[2] = target: nAChR formed by the α7 subunit isoform (Rattus norvegicus, UniProt Q05941); assay: biochemical; type: binding
Sequence of nAChR formed by the α7 subunit isoform (Q05941 23-502): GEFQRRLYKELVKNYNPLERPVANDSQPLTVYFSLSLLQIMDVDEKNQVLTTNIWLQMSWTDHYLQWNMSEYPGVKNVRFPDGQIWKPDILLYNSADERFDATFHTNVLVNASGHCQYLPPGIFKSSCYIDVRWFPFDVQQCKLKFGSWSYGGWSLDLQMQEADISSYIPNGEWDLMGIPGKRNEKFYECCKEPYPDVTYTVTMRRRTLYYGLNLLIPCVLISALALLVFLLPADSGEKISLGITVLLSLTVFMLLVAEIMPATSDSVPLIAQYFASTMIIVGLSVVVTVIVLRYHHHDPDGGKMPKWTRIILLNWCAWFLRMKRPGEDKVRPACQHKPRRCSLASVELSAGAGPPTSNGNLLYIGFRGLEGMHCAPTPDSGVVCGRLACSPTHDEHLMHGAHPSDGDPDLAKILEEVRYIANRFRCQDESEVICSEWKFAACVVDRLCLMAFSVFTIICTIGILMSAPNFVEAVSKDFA

[3] = cerebral cortex homogenate from male Wistar rats, 3H-cytisine 1 nM, 90 min at 2° C., read-out: 3H-cytisine binding IC50

Compound	IC50 (serotonin transporter) [nM]	IC50 [1, 3] [nM]	IC50 [2] [nM]	IC50 [1] [nM]
CN1C2CCC1CN(c1ccc3ccccc3n1)CC2 (racemic) [Compound 2, (±) 3-(2-Quinolinyl)-9-methyl-3,9-diazabicyclo-[4.2.1]-nonane]	13			
c1ccc2ncc(N3CCC4CCC(C3)N4)cc2c1 (racemic) [Compound B5, (±) 3-(3-Quinolinyl)-9-H-3,9-diazabicyclo-[4.2.1]-nonane]	49			
CN1C2CCC1CN(c1ccc(-c3ccsc3)nc1)CC2 (racemic) [Compound F5, (±) 3-[6-(3-Thienyl)-3-pyridyl]-9-methyl-3,9-diazabicyclo-[4.2.1]-nonane]		1500	280	
Cc1ccccc1-c1ccc(N2CCC3CCC(C2)N3C)cn1 (racemic) [Compound F1, (±) 3-[6-(2-Toluyl)-3-pyridyl]-9-methyl-3,9-diazabicyclo-[4.2.1]-nonane]			5500	99
CN1C2CCC1CN(c1ccc(-c3ccccc3)nn1)CC2 (racemic) [Compound C2, (±) 3-(6-Phenyl-3-pyridazinyl)-9-methyl-3,9-diazabicyclo-[4.2.1]-nonane]		> 10000	410	
CN1C2CCC1CN(c1ccc(Cl)c(Cl)c1)CC2 (racemic) [Compound A1, (±) 3-(3,4-Dichlorophenyl)-9-methyl-3,9-diazabicyclo-[4.2.1]-nonane]	32			
CN1C2CCC1CN(c1ccc3cc([N+](=O)[O-])ccc3n1)CC2 (racemic) [Compound C3, (±) 3-(6-Nitro-2-quinolinyl)-9-methyl-3,9-diazabicyclo-[4.2.1]-nonane]	3.7			
CN1CCC2CCC(C1)N2c1ccc(-c2ccccc2)nn1 (racemic) [Compound F10, (±) 3-Methyl-9-(6-phenyl-3-pyridazinyl)-3,9-diazabicyclo-[4.2.1]-nonane]		27000	800	
CN1C2CCC1CN(c1cncc(OCCOc3cncc(N4CCC5CCC(C4)N5C)c3)c1)CC2 (racemic) [Compound B7, (±) O,O′-bis-[5-(9-Methyl-3,9-diazabicyclo-[4.2.1]-nonan-3-yl)-3-pyridyl]-ethyleneglycol]			> 10000	13
CN1C2CCC1CN(c1ccc3ccccc3c1)CC2 (racemic) [Compound 1, (±) 3-(2-Naphthalyl)-9-methyl-3,9-diazabicyclo-[4.2.1]-nonane]	40			
